19 compounds from patent US6215002A, “Pyrrolopyrrolone derivatives as inhibitors of neutrophil elastase” (priority 1996, dated 2001) can be followed below.

In assay [1] the target is T1, human neutrophil elastase (Homo sapiens, UniProt P08246).
T1 sequence (P08246 30-267): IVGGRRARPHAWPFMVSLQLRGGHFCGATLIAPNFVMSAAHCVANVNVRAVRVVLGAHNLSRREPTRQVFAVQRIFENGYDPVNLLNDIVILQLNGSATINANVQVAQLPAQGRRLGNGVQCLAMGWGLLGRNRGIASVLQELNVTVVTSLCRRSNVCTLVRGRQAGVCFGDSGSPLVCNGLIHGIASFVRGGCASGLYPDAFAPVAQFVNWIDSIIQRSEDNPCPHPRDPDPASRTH
Kind of assay: In vitro assay of human neutrophil elastase (HNE). It counts as biochemical. As to conditions: 118 nM purified human neutrophil elastase, pH 8.6, 15 min incubation at 30° C., MeO-succinyl-alanyl-alanyl-prolyl-valyl-p-nitroanilide substrate; read-out: HNE IC50. Summed up: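 Residual activity was taken as the 10 min rate of absorbance rise at 405 nm after adding 0.6 mM MeO-succinyl-AAPV-p-nitroanilide. Curve fitting of activity against concentration gave IC50.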

Assay [2] has as its system Intracellular elastase. Briefly: Oral in vivo model using IL-8 induced lung infiltrates for the assessment of intracellular elastase inhibition (hamster test). Particulars: effective dose of less than 40 mg/kg, IL-8 intratracheal. The procedure: An Oral in vivo Model Using IL-8 Induced Lung Infiltrates For the Assessment of Intracellular Elastase Inhibition
Adult hamsters (100-150 g) are randomised into groups (n=4) and fasted overnight. Under gaseous anaesthetic (3% isofluorane) animals are dosed orally with 1 mL/100 g water as vehicle or containing predissolved compounds. Either at the same time, or subsequently under anaesthetic, animals are dosed intratracheally with 1 ug recombinant human IL-8 in 100 uL sterile saline. Six hours after IL-8 dosing animals are sacrificed using intrapertoneal pentobarbitone. The lungs are ravaged with 2×2.5 mL sterile saline and femurs are removed by dissection.
Intracellular elastase is prepared from neutrophils collected by lavage and from femoral bone marrow. This is achieved by sonication of the neutrophils and centrifugation to yield intracellular granules. These are disrupted by freeze/thawing and sonication. Elastase and myeloperoxidase assays are then performed on these samples to assess the efficacy of the compounds and to normalise for neutrophil recovery.

Where a name gives a salt, the structure may show the parent alone.

One may read the IC50 as the concentration that gives 50% inhibition. With `CC(C)[C@H]1C(=O)N(S(C)(=O)=O)[C@H]2CCN(C(=O)/C=C/CN(C(C)C)C(C)C)[C@H]12.Cl` (relative stereo) [Example 144, rel-(3R,3aR,6aS)-4-(4-Diisopropylamino-but-2E-enoyl)-3-isopropyl-1-methanesulfonyl-hexahydro-pyrrolo[3,2-b]pyrrol-2-one hydrochloride], the IC50 in assay [1] is 71 nM. Moreover, the duration of effect result in assay [2] is on record as “at least 6 hours”.
As to `CCN(CC)C/C=C/C(=O)N1CC[C@H]2[C@H]1[C@@H](C(C)C)C(=O)N2S(C)(=O)=O` (relative stereo) [Example 145, rel-(3R,3aR,6aS)-4-Diethylamino-but-2E-enoyl)-3-isopropyl-1-methanesulfonyl-hexahydro-pyrrolo[3,2-b]pyrrol-2-one hydrochloride], in assay [1], the IC50 is 39 nM. In assay [2], the duration of effect entry is reported as “at least 6 hours”.
Take `CC(C)[C@H]1C(=O)N(S(C)(=O)=O)[C@H]2CCN(C(=O)/C=C/CN3CCCC3)[C@H]12.Cl` (relative stereo) [Example 146, rel-(3R,3aR,6aS)-3-Isopropyl-1-methanesulfonyl-4(4-pyrrolidin-1-yl-but-2E-enoyl)-hexahydro-pyrrolo[3,2-b]pyrrol-2-one hydrochloride]: in assay [1], the IC50 is 34 nM. Moreover, in assay [2], the duration of effect entry is reported as “at least 6 hours”.
In the case of `CON(C)C/C=C/C(=O)N1CC[C@H]2[C@H]1[C@@H](C(C)C)C(=O)N2S(C)(=O)=O` (relative stereo) [Example 147, rel-(3R,3aR,6aS)-3-Isopropyl-1-methanesulfonyl-4-[4-(methoxy-methyl-amino)-but-E2-enoyl]-hexahydro-pyrrolo[3,2-b]pyrrol-2-one hydrochloride], the 50% inhibitory concentration (IC50) in assay [1] was determined as 96 nM. The duration of effect entry in assay [2] was “at least 6 hours”.
Taken in the same sequence, the figures for `CC(C)[C@H]1C(=O)N(S(C)(=O)=O)[C@H]2CCN(C(=O)/C=C/CN(C)C)[C@H]12.Cl` (relative stereo) [Example 148, rel-(3R,3aR,6aS)-4-(4-Dimethylamino-but-2E-enoyl)-3-isopropyl-1-methanesulfonyl-hexahydro-pyrrolo[3,2-b]pyrrol-2-one hydrochloride] were 35 nM and “at least 6 hours”.
For `CC(C)[C@H]1C(=O)N(S(C)(=O)=O)[C@H]2CCN(C(=O)/C=C/CN3C(C)CCC3C)[C@H]12.Cl` (relative stereo) [Example 149, rel-(3R,3aR,6aS)-4-[4-(2,5-Dimethyl-pyrrolidin-1-yl)-but-2E-enoyl]-3-isopropyl-1-methanesulfonyl-hexahydro-pyrrolo[3,2-b]pyrrol-2-one hydrochloride], the IC50 in assay [1] worked out at 46 nM. In assay [2], the duration of effect entry was “at least 6 hours”.
For `CC(C)[C@H]1C(=O)N(S(C)(=O)=O)[C@H]2CCN(C(=O)/C=C/CN(C)CC(N)=O)[C@H]12` (relative stereo) [Example 150, rel-2-{[(4-(6R-Isopropyl-4-methanesulfonyl-5-oxo-hexahydro-(3aS,6aR)-pyrro[3,2-b]pyrrol-1-yl)-4-oxo-but-2E-enyl]-methyl-amino}-acetamide hydrochloride] the same measures were 50 nM and “at least 6 hours”.
In the case of `CC(C)NC/C=C/C(=O)N1CC[C@H]2[C@H]1[C@@H](C(C)C)C(=O)N2S(C)(=O)=O.Cl` (relative stereo) [Example 151, rel-(3R,3aR,6aS)-3-Isopropyl-4-(4-isopropylamino-but-2E-enoyl)-1-methanesulfonyl-hexahydro-pyrrolo[3,2-b]pyrrol-2-one hydrochloride], the IC50 in assay [1] was determined as 85 nM. Also, the duration of effect result in assay [2] is “at least 6 hours”.
On to `CC(C)[C@H]1C(=O)N(S(C)(=O)=O)[C@H]2CCN(C(=O)/C=C/CN3CCC(C(N)=O)CC3)[C@H]12.Cl` (relative stereo) [Example 152, rel-1-[4-(6R-Isopropyl-4-methanesulfonyl-5-oxo-hexahydro-(3aS,6aR)-pyrrolo[3,2-b]pyrrol-1-yl)-4-oxo-but-2E-enyl]-piperidine-4-carboxylic acid amide hydrochloride], for which the IC50 in assay [1] turned out to be 21 nM. The duration of effect result in assay [2] was “at least 6 hours”.
In the case of `CC(C)[C@H]1C(=O)N(S(C)(=O)=O)[C@H]2CCN(C(=O)/C=C/CN3C[C@H]4Cc5c(F)ccc(F)c5C[C@@H]4C3)[C@H]12` (relative stereo) [Example 153, rel-(3R,3aR,6aS)-4-[4-(5,8-Difluoro-1,3,3a,4,9,9a-hexahydro-(3aS,9aS)-benzol[f]isoindol-2-yl)-but-2E-enoyl]-3-isopropyl-1-methanesulfonyl-hexahydro-pyrrolo[3,2-b]pyrrol-2-one hydrochloride], the IC50 in assay [1] stood at 114 nM. Moreover, the duration of effect result in assay [2] is “at least 6 hours”.
For `CC(C)[C@H]1C(=O)N(S(C)(=O)=O)[C@H]2CCN(C(=O)/C=C/c3ccc(CN4CCCCC4)cc3)[C@H]12.Cl` (relative stereo) [Example 158, rel-(3R,3aR,6aS)-3-Isopropyl-1-methanesulfonyl-4-[3-(4-piperidin-1-ylmethyl-phenyl)-(E)-acryloyl]-hexahydro-pyrrolo[3,2-b]pyrrol-2-one hydrochloride] the same measures were 19 nM and “at least 6 hours”.
For `CC(C)[C@H]1C(=O)N(S(C)(=O)=O)[C@H]2CCN(C(=O)/C=C/c3ccc(CN(C)C)cc3)[C@H]12` (relative stereo) [Example 159, hydrochloride] the same measures were 17 nM and “at least 6 hours”.
Turning to `CC(C)[C@H]1C(=O)N(S(C)(=O)=O)[C@H]2CCN(C(=O)c3ccc(CN4CCCC4)cc3)[C@H]12.Cl` (relative stereo) [Example 173, rel-(3R,3aR,6aS)-3-Isopropyl-1-methanesulfonyl-4-(4-pyrrolidin-1-ylmethyl-benzoyl)-hexahydro-pyrrolo[3,2-b]pyrrol-2-one hydrochloride], the IC50 in assay [1] was 65 nM. In addition, the duration of effect result in assay [2] is recorded as “at least 6 hours”.
Taken in the same sequence, the figures for `CC(C)[C@H]1C(=O)N(S(C)(=O)=O)[C@H]2CCN(C(=O)c3ccc(CN4CCCCC4)cc3)[C@H]12.Cl` (relative stereo) [Example 174, rel-(3R,3aR,6aS)-3-Isopropyl-1-methanesulfonyl-4-(4-piperidin-1-ylmethyl-benzoyl)-hexahydro-pyrrolo[3,2-b]pyrrol-2-one hydrochloride] were 13 nM and “at least 6 hours”.
For `CC(C)[C@H]1C(=O)N(S(C)(=O)=O)[C@H]2CCN(C(=O)c3ccc(CN(C)C)cc3)[C@H]12.Cl` (relative stereo) [Example 175, rel-(3R,3aR,6aS)-4-(4-Dimethylaminomethyl-benzoyl)-3-isopropyl-1-methanesulfonyl-hexahydro-pyrrolo[3,2-b]pyrrol-2-one hydrochloride] the same measures were 74 nM and “at least 6 hours”.
For `CC(C)[C@H]1C(=O)N(S(C)(=O)=O)[C@H]2CCN(C(=O)c3ccc(CN4CCN(C)CC4)cc3)[C@H]12.Cl.Cl` (relative stereo) [Example 176, rel-(3R,3aR,6aS)-3-Isopropyl-1-methanesulfonyl-4-[4-(4-methyl-piperazin-1-ylmethyl)-benzoyl]-hexahydro-pyrrolo[3,2-b]pyrrol-2-one dihydrochloride] the same measures were 90 nM and “at least 6 hours”.
As to `CC(C)[C@H]1C(=O)N(S(C)(=O)=O)[C@H]2CCN(C(=O)c3ccc(CN4CCOCC4)cc3)[C@H]12.Cl` (relative stereo) [Example 177, rel-(3R,3aR,6aS)-3-Isopropyl-1-methanesulfonyl-4-(4-morpholin-4-ylmethyl-benzoyl)-hexahydro-pyrrolo[3,2-b]pyrrol-2-one hydrochloride], the IC50 in assay [1] amounted to 20 nM. In addition, in assay [2], the duration of effect result is recorded as “at least 6 hours”.
For `CC(C)[C@H]1C(=O)N(S(C)(=O)=O)[C@H]2CCN(C(=O)c3ccc(CN4CCCCCC4)cc3)[C@H]12` (relative stereo) [Example 178, rel-(3R,3aR,6aS)-4-(4-Azepin-1-ylmethyl-benzoyl)-3-isopropyl-1-methanesulfonyl-hexahydro-pyrrolo[3,2-b]pyrrol-2-one hydrochloride] the same measures were 68 nM and “at least 6 hours”.
In the case of `CC(C)NCc1ccc(C(=O)N2CC[C@H]3[C@H]2[C@@H](C(C)C)C(=O)N3S(C)(=O)=O)cc1.Cl` (relative stereo) [Example 179, rel-(3R,3aR,6aS)-3-Isopropyl-4-[4-(isopropylamino-methyl)-benzoyl]-1-methanesulfonyl-hexahydro-pyrrolo[3,2-b]pyrrol-2-one hydrochloride], the IC50 in assay [1] was 47 nM. In assay [2], the duration of effect result is given as “at least 6 hours”.
